What was measured:
Conditions in all cases: K-2 at 1 × 10^−7 mol/L
Vasopressin V1B = Vasopressin V1B (Homo sapiens, UniProt P47901); assay: Receptor binding panel: Vasopressin V1B
α1B-Adrenergic = α1B-Adrenergic (Homo sapiens, UniProt P35368); assay: Receptor binding panel: α1B-Adrenergic
Serotonin 5HT3 = Serotonin 5HT3 (Homo sapiens, UniProt P46098); assay: Receptor binding panel: Serotonin 5HT3
β1-Adrenergic = β1-Adrenergic (Homo sapiens, UniProt P08588); assay: Receptor binding panel: β1-Adrenergic
Estrogen = assay: Receptor binding panel: Estrogen
Dopamine D1 = Dopamine D1 (Homo sapiens, UniProt P21728); assay: Receptor binding panel: Dopamine D1
Sigma σ1 = Sigma σ1 (Homo sapiens, UniProt Q99720); assay: Receptor binding panel: Sigma σ1
Chain of Sigma σ1 (Q99720 whole entry): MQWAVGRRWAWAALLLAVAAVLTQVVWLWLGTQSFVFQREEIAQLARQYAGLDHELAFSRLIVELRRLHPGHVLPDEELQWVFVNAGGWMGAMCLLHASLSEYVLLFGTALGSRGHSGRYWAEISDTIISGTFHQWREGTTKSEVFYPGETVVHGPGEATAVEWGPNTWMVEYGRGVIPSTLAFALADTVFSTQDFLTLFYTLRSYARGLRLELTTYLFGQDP

Muscarinic M1 = Muscarinic M1 (Homo sapiens, UniProt P11229); assay: Receptor binding panel: Muscarinic M1
GABA A (Agonist site) = assay: Receptor binding panel: GABA A (Agonist site)
α2C-Adrenergic = α2C-Adrenergic (Homo sapiens, UniProt P18825); assay: Receptor binding panel: α2C-Adrenergic
Dopamine transporter = Dopamine transporter (Homo sapiens, UniProt Q01959); assay: Receptor binding panel: Dopamine transporter
Serotonin 5HT1A = Serotonin 5HT1A (Homo sapiens, UniProt P08908); assay: Receptor binding panel: Serotonin 5HT1A
K Channel KATP = assay: Receptor binding panel: K Channel KATP
α1A-Adrenergic = α1A-Adrenergic (Homo sapiens, UniProt P35348); assay: Receptor binding panel: α1A-Adrenergic
Leukotriene D4 = assay: Receptor binding panel: Leukotriene D4
Histamine H2 = Histamine H2 (Homo sapiens, UniProt P25021); assay: Receptor binding panel: Histamine H2
Chain of Histamine H2 (P25021 whole entry): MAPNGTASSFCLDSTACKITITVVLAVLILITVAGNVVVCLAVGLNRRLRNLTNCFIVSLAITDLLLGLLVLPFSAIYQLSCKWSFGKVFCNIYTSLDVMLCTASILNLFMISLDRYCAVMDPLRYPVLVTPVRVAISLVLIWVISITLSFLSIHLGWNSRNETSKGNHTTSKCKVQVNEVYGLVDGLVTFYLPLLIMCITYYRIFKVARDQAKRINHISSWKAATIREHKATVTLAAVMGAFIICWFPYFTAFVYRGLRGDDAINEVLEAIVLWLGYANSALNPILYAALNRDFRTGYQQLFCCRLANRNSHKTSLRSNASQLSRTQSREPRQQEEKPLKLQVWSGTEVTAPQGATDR

Neurokinin NK3 = Neurokinin NK3 (Homo sapiens, UniProt P29371); assay: Receptor binding panel: Neurokinin NK3
Angiotensin AT1 = Angiotensin AT1 (Homo sapiens, UniProt P30556); assay: Receptor binding panel: Angiotensin AT1
Chain of Angiotensin AT1 (P30556 whole entry): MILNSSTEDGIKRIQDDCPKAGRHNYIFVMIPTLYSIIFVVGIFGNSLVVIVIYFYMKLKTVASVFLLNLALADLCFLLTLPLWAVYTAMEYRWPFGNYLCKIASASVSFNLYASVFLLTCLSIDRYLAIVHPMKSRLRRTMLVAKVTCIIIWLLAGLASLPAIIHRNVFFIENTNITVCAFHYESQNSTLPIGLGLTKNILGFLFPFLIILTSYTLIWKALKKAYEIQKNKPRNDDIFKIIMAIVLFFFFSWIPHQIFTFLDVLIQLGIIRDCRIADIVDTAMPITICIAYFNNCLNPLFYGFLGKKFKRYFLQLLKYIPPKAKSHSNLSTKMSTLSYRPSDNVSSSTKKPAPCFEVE

α2A-Adrenergic = α2A-Adrenergic (Homo sapiens, UniProt P08913); assay: Receptor binding panel: α2A-Adrenergic
Chain of α2A-Adrenergic (P08913 whole entry): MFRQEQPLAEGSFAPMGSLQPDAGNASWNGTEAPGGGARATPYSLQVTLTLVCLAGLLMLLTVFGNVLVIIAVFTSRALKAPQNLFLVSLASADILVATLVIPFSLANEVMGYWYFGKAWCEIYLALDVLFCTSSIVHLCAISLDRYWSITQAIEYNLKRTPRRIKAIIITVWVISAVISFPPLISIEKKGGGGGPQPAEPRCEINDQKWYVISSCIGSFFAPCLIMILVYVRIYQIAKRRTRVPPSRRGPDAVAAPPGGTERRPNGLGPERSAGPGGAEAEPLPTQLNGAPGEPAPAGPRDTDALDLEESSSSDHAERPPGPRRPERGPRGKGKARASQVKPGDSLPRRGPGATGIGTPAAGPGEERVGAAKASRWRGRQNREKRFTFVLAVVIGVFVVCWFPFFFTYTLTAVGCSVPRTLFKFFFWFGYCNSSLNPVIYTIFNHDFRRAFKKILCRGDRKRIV

Histamine H1 = Histamine H1 (Homo sapiens, UniProt P35367); assay: Receptor binding panel: Histamine H1
Chain of Histamine H1 (P35367 whole entry): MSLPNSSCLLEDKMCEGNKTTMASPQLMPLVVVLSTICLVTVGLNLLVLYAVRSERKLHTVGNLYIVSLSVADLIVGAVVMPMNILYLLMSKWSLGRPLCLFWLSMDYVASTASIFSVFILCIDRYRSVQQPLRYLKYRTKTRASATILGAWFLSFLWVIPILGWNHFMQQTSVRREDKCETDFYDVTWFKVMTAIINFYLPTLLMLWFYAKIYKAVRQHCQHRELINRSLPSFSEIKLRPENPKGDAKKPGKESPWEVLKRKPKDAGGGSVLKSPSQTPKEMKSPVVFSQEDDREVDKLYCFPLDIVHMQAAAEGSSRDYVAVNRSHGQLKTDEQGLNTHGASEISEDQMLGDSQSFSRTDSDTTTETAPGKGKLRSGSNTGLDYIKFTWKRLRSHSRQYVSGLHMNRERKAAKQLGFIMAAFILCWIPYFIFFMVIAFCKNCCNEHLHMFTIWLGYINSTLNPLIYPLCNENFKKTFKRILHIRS

GABA B = GABA B (Homo sapiens, UniProt Q9UBS5); assay: Receptor binding panel: GABA B
Chain of GABA B (Q9UBS5 15-961 limits assumed): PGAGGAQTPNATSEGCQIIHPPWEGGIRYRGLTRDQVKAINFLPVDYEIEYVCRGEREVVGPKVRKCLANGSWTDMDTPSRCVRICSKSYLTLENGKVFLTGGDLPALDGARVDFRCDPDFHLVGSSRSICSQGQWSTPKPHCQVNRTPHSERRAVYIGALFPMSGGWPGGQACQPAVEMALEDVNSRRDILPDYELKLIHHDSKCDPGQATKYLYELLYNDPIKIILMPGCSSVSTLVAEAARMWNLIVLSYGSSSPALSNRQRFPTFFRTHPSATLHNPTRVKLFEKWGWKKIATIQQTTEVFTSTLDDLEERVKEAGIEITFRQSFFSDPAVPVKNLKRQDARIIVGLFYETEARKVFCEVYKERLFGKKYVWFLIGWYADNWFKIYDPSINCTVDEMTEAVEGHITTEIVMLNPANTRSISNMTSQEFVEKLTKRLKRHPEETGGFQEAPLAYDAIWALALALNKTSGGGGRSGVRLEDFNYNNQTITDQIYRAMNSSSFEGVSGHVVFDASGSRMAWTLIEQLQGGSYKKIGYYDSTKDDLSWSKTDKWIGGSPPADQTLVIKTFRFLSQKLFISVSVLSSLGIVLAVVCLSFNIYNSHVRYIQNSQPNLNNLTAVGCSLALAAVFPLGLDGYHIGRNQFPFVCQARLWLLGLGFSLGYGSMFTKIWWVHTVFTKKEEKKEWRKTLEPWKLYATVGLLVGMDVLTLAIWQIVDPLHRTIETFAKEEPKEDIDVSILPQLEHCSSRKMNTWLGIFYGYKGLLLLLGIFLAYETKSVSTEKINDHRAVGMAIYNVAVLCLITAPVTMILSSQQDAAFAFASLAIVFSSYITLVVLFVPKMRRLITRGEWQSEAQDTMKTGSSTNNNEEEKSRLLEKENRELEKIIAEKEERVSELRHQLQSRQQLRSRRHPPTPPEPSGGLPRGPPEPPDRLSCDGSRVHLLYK
Chain of GABA B (O75899 41-941 partner limits assumed): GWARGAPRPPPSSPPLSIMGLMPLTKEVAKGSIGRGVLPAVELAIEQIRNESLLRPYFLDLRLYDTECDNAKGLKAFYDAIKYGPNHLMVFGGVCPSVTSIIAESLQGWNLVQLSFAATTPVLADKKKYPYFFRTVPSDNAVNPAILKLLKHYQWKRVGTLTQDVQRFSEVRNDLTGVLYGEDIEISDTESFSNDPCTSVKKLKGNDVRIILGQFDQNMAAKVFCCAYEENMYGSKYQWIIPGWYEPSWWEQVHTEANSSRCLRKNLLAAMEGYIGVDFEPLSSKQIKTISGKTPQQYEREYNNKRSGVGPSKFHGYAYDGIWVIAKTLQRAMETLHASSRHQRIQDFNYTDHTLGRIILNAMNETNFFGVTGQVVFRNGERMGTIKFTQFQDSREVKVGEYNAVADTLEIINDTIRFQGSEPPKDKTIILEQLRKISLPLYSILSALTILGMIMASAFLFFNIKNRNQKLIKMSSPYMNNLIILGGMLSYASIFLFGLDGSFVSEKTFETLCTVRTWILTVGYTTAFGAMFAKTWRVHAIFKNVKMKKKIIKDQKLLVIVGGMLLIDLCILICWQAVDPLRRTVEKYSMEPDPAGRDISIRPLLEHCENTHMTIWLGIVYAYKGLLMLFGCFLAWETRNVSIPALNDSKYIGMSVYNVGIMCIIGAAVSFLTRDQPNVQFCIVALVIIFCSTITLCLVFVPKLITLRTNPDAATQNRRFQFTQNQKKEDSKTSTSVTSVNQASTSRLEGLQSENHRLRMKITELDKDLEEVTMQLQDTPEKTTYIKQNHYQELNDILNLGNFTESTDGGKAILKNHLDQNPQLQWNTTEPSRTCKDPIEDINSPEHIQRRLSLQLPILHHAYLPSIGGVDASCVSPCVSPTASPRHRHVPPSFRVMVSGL

K Channel SKCa = assay: Receptor binding panel: K Channel SKCa
Serotonin transporter = Serotonin transporter (Homo sapiens, UniProt P31645); assay: Receptor binding panel: Serotonin transporter
Glutamate (AMPA) = assay: Receptor binding panel: Glutamate (AMPA)
[1] = test system: Glutamate (NMDA glycine site); assay: Receptor binding panel: Glutamate (NMDA glycine site)
Opiate δ = Opiate δ (Homo sapiens, UniProt P41143); assay: Receptor binding panel: Opiate δ
CRF1 = molecular target: T1, CRF1 (Homo sapiens, UniProt P34998); assay: Receptor binding panel: CRF1
T1 sequence (P34998 24-415): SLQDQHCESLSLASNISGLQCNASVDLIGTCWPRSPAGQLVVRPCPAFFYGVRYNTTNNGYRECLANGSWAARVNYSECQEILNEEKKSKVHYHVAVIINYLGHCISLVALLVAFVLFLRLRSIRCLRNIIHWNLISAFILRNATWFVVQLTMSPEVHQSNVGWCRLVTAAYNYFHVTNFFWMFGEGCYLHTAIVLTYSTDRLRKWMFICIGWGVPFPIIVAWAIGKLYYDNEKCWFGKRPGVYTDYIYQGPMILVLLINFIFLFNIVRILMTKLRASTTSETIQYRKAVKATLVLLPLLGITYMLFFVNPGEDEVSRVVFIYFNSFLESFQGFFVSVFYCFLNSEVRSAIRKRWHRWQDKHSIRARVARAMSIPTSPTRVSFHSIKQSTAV

Androgen = Androgen (Homo sapiens, UniProt P10275); assay: Receptor binding panel: Androgen
Muscarinic M2 = Muscarinic M2 (Homo sapiens, UniProt P08172); assay: Receptor binding panel: Muscarinic M2
Glutamate (Kainate) = assay: Receptor binding panel: Glutamate (Kainate)
Na channel site 2 = assay: Receptor binding panel: Na channel site 2
Endothelin ETB = Endothelin ETB (Homo sapiens, UniProt P24530); assay: Receptor binding panel: Endothelin ETB
Nicotinic = assay: Receptor binding panel: Nicotinic; set-up: species or system Human
Vasopressin V1 = Vasopressin V1 (Homo sapiens, UniProt P37288); assay: Receptor binding panel: Vasopressin V1
Chain of Vasopressin V1 (P37288 whole entry): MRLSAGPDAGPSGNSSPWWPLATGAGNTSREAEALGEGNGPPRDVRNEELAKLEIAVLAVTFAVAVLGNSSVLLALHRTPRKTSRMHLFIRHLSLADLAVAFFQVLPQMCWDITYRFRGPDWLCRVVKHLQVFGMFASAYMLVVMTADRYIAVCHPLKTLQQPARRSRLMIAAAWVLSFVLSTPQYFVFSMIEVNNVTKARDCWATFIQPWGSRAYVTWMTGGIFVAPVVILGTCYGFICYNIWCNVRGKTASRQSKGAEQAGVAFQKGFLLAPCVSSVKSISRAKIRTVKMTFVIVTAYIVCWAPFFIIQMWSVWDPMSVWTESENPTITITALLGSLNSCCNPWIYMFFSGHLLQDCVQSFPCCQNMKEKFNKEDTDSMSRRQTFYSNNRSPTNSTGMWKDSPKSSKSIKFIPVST

β2-Adrenergic = β2-Adrenergic (Homo sapiens, UniProt P07550); assay: Receptor binding panel: β2-Adrenergic
[2] = test system: Ca channel (Type L, Dihydropyridine); assay: Receptor binding panel: Ca channel (Type L, Dihydropyridine)
GABA A (BZ central) = assay: Receptor binding panel: GABA A (BZ central)
Melatonin MT1 = Melatonin MT1 (Homo sapiens, UniProt P48039); assay: Receptor binding panel: Melatonin MT1
Adenosine A1 = Adenosine A1 (Homo sapiens, UniProt P30542); assay: Receptor binding panel: Adenosine A1
Chain of Adenosine A1 (P30542 whole entry): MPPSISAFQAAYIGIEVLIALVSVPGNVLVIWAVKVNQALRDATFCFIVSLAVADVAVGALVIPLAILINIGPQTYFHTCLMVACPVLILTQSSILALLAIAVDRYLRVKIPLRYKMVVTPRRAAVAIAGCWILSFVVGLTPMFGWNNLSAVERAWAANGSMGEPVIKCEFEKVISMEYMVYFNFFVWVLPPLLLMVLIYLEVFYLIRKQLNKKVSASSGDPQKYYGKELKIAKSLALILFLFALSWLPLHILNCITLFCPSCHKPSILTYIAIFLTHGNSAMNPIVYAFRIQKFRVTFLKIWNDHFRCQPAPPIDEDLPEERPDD

Muscarinic M3 = Muscarinic M3 (Homo sapiens, UniProt P20309); assay: Receptor binding panel: Muscarinic M3
Opiate κ = Opiate κ (Homo sapiens, UniProt P41145); assay: Receptor binding panel: Opiate κ
[3] = test system: Glutamate (NMDA phencyclidine site); assay: Receptor binding panel: Glutamate (NMDA phencyclidine site)

Chain of Serotonin 5HT3 (P46098 24-478): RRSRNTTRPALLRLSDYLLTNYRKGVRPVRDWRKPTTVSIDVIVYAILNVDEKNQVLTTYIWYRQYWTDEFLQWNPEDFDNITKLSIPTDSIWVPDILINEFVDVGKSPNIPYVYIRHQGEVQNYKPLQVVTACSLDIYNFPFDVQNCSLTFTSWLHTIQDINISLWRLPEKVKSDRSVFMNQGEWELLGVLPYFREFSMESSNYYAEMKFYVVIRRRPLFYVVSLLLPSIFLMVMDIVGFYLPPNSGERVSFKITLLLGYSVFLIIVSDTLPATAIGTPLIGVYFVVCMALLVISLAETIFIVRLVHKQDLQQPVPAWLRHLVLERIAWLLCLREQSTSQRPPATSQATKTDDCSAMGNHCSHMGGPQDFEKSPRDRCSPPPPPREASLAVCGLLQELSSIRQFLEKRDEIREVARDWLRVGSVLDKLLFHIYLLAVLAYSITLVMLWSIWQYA

SMILES: CN(CCSc1cc(F)c(OCC(N)=O)c(F)c1)S(=O)(=O)c1ccccc1 [K-2, {4-[2-(benzenesulfonyl-methyl-amino)-ethylsulfanil]-2,6-difluoro-phenoxy}-acetamide]
- inhibition at 0.1 µM (Vasopressin V1B): 1.48%
- inhibition at 0.1 µM (α1B-Adrenergic): 0%
- inhibition at 0.1 µM (Serotonin 5HT3): 1.57%
- inhibition at 0.1 µM (β1-Adrenergic): 0.82%
- Inhibition (%) (Estrogen): 2.83%
- inhibition at 0.1 µM (Dopamine D1): 10.2%
- inhibition at 0.1 µM (Sigma σ1): 2.88%
- inhibition at 0.1 µM (Muscarinic M1): 2.24%
- Inhibition (%) (GABA A (Agonist site)): 0.38%
- inhibition at 0.1 µM (α2C-Adrenergic): 5.82%
- inhibition at 0.1 µM (Dopamine transporter): 0.29%
- inhibition at 0.1 µM (Serotonin 5HT1A): 1.98%
- Inhibition (%) (K Channel KATP): 5.71%
- inhibition at 0.1 µM (α1A-Adrenergic): 0.21%
- Inhibition (%) (Leukotriene D4): 0.16%
- inhibition at 0.1 µM (Histamine H2): 0.79%
- inhibition at 0.1 µM (Neurokinin NK3): 0%
- inhibition at 0.1 µM (Angiotensin AT1): 1.52%
- inhibition at 0.1 µM (α2A-Adrenergic): 8.77%
- inhibition at 0.1 µM (Histamine H1): 6.53%
- inhibition at 0.1 µM (GABA B): 1.9%
- Inhibition (%) (K Channel SKCa): 0.00%
- inhibition at 0.1 µM (Serotonin transporter): 0.17%
- Inhibition (%) (Glutamate (AMPA)): 1.74%
- Inhibition (%) [1]: 0.64%
- inhibition at 0.1 µM (Opiate δ): 0.3%
- inhibition at 0.1 µM (CRF1): 1.37%
- inhibition at 0.1 µM (Androgen): 0.57%
- inhibition at 0.1 µM (Muscarinic M2): 0.51%
- Inhibition (%) (Glutamate (Kainate)): 1.68%
- Inhibition (%) (Na channel site 2): 11.15%
- inhibition at 0.1 µM (Endothelin ETB): 0%
- Inhibition (%) (Nicotinic): 7.17%
- inhibition at 0.1 µM (Vasopressin V1): 4.76%
- inhibition at 0.1 µM (β2-Adrenergic): 3.39%
- Inhibition (%) [2]: 0.53%
- Inhibition (%) (GABA A (BZ central)): 1.54%
- inhibition at 0.1 µM (Melatonin MT1): 0.11%
- inhibition at 0.1 µM (Adenosine A1): 5.29%
- inhibition at 0.1 µM (Muscarinic M3): 5.99%
- inhibition at 0.1 µM (Opiate κ): 0%
- Inhibition (%) [3]: 5.02%
